Patent EP4644383A1 (Jiangsu Yahong Meditech Co., Ltd., priority 2022, dated 2024)
Read-outs that look alike come from different tables or passages of the source.

Key:
Assay type in all cases: biochemical
[1] = biological target: T1, FGFR3 (Homo sapiens, UniProt P22607); assay: FGFR3 kinase activity inhibition assay (LanthaScreen TR-FRET); conditions: for Selectivity (X) FGFR1/FGFR3: ratio of IC50 FGFR1/FGFR3, selectivity towards FGFR3; for Selectivity (X) FGFR2/FGFR3: ratio of IC50 FGFR2/FGFR3, selectivity towards FGFR3; for Selectivity (X) FGFR4/FGFR3: ratio of IC50 FGFR4/FGFR3, selectivity towards FGFR3
T1 construct: FGFR3's cytoplasmic domain [436-806 (terminal) amino acids]; purchased Carna 08-135
Procedure, shortened: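 Read-out is TR-FRET, with the 520 nm/495 nm emission ratio normalised to DMSO (max) and enzyme-free (min) controls. Enzyme was the FGFR3 cytoplasmic domain, residues 436-806. EDTA (10 mM) stopped the reaction, followed by 60 min at 22 °C before reading.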

[2] = biological target: T2, FGFR4 (Homo sapiens, UniProt P22455); assay: FGFR4 kinase activity inhibition assay (LanthaScreen TR-FRET)
T2 construct: FGFR4's cytoplasmic domain [460-802 (terminal) amino acids]; purchased Carna 08-136
Description: (§1) FGFR1 kinase activity was measured using Invitrogen LanthaScreen™ assay technology, which utilized fluorescently-labeled peptides and terbium-labeled antibodies to directly measure an amount of the phosphorylated substrate through time-resolved fluorescence energy transfer (TR-FRET). • ① The test compounds were diluted: starting from a concentration of 1 µM, with a buffer solution in a three-fold serial dilution, the buffer solution being composed of 50 mM HEPES, 10 mM MgCl2, 0.01% TritonX-100, 0.01% BSA, 4 mM DTT (pH 7.5), and 1% DMSO; • ② 0.01 nM recombinant human GST fusion protein FGFR1's cytoplasmic domain [398-822 (terminal) amino acids] (Carna: 08-133) was formulated into a 2 × solution, mixed well with the test compounds, and incubated at 23°C for 10 minutes; • ③ 28 nM Fluorescein-Poly GT peptide substrate (Life Technologies: PV3611) and 28 µM ATP were formulated into a 2 × solution, mixed well with the test compounds and enzyme in ②, and incubated at 23°C for 30 minutes; • ④ 10 µL of 2nM Tb-PY20 antibody (Life Technologies: PV3552) and 10 mM EDTA were added to quench the kinase reaction, and incubated at 22°C for 60 minutes. • ⑤ The reaction was measured using a PerkinElmer EnVision multimode plate reader through TR-FRET dual wavelength detection. • 1. The RFU values were copied from the Envision program. • 2. The ratio of RFU 520nm/RFU 495nm was calculated. • 3. The value of the ratio was converted to a percentage inhibition value. % Inhibition = (max-data)/(max-min) × 100 [formula]
(§2) "Min" represents the ratio of the control without enzyme, "max" represents the ratio of the DMSO control, and "data" represents the ratio of the compounds in wells with different concentrations.
(§3) "Top" refers to the maximum response, "Bottom" refers to the minimum response, and "HillSlope" refers to the slope of the curve.
(§4) According to the same method as that in the FGFR1 kinase activity inhibition assay, the inhibitory activities against FGFR2, FGFR3 and FGFR4 were tested using FGFR2's cytoplasmic domain [399-821 (terminal) amino acids] (Carna: 08-134), FGFR3's cytoplasmic domain [436-806 (terminal) amino acids] (Carna: 08-135) and FGFR4's cytoplasmic domain [460-802 (terminal) amino acids] (Carna: 08-136), respectively. Table 1 reports the kinase activity inhibition results and selectivity towards FGFR3 of each compound.

[3] = biological target: T3, FGFR2 (Homo sapiens, UniProt P21802); assay: FGFR2 kinase activity inhibition assay (LanthaScreen TR-FRET)
T3 construct: FGFR2's cytoplasmic domain [399-821 (terminal) amino acids]; purchased Carna 08-134
Description: as §1, §2, §3
as §4, with “Table 1 reports the kinase activity inhibition results and selectivity towards FGFR3 of each compound.” left out

[4] = biological target: T4, FGFR1 (Homo sapiens, UniProt P11362); assay: FGFR1 kinase activity inhibition assay (LanthaScreen TR-FRET)
T4 construct: cytoplasmic domain [398-822 (terminal) amino acids]; purchased Carna 08-133
Procedure, shortened: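 Emission ratio 520 nm/495 nm by TR-FRET after stopping reaction with 10 mM EDTA and 60 min incubation at 22°C. Inhibition normalized between no-enzyme (min) and DMSO (max) controls, then fitted to a four-parameter curve (Top, Bottom, HillSlope).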

[5] = FGFR3 kinase, TR-FRET, read-out: IC50 (nM) FGFR3
[6] = FGFR4 kinase, TR-FRET, read-out: IC50 (nM) FGFR4
[7] = FGFR2 kinase, TR-FRET, read-out: IC50 (nM) FGFR2
[8] = FGFR1 kinase, TR-FRET, read-out: IC50 (nM) FGFR1

T1 sequence (P22607 436-806): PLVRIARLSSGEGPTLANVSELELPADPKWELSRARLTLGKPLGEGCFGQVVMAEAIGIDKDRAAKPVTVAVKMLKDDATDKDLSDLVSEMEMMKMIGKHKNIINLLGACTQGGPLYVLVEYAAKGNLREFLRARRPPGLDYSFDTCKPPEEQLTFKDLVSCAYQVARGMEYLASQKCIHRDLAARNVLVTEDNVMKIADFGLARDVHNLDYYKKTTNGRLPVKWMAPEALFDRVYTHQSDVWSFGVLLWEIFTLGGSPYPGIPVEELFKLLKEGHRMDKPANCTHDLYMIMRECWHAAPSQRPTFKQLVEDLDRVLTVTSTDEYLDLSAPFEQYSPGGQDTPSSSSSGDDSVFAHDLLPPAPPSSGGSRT
T3 sequence (P21802 399-821): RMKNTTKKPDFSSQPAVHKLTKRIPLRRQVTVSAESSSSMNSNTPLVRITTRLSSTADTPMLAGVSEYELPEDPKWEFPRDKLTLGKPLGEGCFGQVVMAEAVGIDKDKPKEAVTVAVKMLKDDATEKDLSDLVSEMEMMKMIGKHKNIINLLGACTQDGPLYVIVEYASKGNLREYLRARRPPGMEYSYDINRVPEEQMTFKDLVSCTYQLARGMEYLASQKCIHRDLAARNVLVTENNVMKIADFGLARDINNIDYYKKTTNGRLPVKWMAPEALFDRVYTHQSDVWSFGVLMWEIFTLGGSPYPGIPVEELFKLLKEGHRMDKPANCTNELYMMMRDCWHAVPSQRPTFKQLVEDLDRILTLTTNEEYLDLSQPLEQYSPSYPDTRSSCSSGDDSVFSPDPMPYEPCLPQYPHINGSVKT
T2 sequence (P22455 460-802): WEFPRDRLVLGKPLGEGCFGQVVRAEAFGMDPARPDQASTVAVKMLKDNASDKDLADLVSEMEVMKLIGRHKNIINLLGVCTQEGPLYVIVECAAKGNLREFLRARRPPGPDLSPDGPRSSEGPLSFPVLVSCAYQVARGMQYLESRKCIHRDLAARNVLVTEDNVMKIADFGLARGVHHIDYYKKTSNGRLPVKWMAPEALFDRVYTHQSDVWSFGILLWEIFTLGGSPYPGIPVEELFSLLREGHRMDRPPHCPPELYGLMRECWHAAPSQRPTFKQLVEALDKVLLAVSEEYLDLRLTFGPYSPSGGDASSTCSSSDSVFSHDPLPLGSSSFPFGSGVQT
T4 sequence (P11362 398-822): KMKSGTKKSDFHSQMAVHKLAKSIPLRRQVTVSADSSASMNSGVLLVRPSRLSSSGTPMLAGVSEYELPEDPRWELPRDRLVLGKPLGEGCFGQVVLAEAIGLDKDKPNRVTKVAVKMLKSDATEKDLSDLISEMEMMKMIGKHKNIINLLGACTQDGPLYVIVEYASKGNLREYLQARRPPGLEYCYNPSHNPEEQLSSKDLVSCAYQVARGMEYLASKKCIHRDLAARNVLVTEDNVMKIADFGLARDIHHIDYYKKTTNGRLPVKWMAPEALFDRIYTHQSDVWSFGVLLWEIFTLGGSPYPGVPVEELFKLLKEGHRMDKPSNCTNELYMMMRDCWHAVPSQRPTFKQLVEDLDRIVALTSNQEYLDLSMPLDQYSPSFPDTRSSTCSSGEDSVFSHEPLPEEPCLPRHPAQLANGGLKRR

Row | SMILES | IC50 [1, 5] [nM] | Selectivity (X) FGFR1/FGFR3 [1] | Selectivity (X) FGFR2/FGFR3 [1] | Selectivity (X) FGFR4/FGFR3 [1] | IC50 [2, 6] [nM] | IC50 [3, 7] [nM] | IC50 [4, 8] [nM] | IC50 [1] [nM] | IC50 [2] [nM] | IC50 [3] [nM] | IC50 [4] [nM]
1 | CC(Oc1ccc2[nH]nc(-c3cnn(C)c3)c2c1)c1nccc2nccnc12 (stereo not shown) [Example 157, 5-(1-((3-(1-methyl-1H-pyrazol-4-yl)-1H-indazol-5-yl)oxy)ethyl)py ridino[3,4-b]pyrazine] | 1 to 10 | A (A represents 1 ≤ multiple X<20) | A (A represents 1 ≤ multiple X<20) | A (A represents 1 ≤ multiple X<20) | 10 to 100 | 1 to 10 | 10 to 100 |  |  |  | 
2 | Cc1ccnc2cccc(C(C)Oc3ccc4[nH]nc(-c5cnn(C)c5)c4c3)c12 (stereo not shown) [Example 126, 4-methyl-5-(1-((3-(1-methyl-1H-pyrazol-4-yl)-1H-indazol-5-yl)oxy)ethyl)qu inoline] | 1 to 10 | B (B represents 20 ≤ multiple X<50) | A (A represents 1 ≤ multiple X<20) | C (C represents 50 ≤ multiple X<100) | > 100 | 1 to 10 | 10 to 100 |  |  |  | 
3 | C[C@@H](Oc1ccc2[nH]nc(-c3cnn(CCN4CCOCC4)c3)c2n1)c1c(Cl)cncc1Cl [Example 31, (R)-4-(2-(4-(5-(1-(3,5-dichloropyridin-4-yl)ethoxy)-1H-pyrazolo[4,3-b]pyridin-3-yl)-1H-pyrazol-1-yl)ethyl)morpholine] |  | B (B represents 20 ≤ multiple X<50) | A (A represents 1 ≤ multiple X<20) | B (B represents 20 ≤ multiple X<50) |  |  |  | < 1 | 10 to 100 | < 1 | 1 to 10
4 | CC(Oc1ccc2[nH]nc(-c3cnn(C)c3)c2n1)c1c(C(F)F)ccc2ncccc12 (stereo not shown) [Example 203] | < 1 | B (B represents 20 ≤ multiple X<50) | B (B represents 20 ≤ multiple X<50) | C (C represents 50 ≤ multiple X<100) | 10 to 100 | 10 to 100 | 10 to 100 |  |  |  | 
5 | [2H]C([2H])([2H])c1ccc2ncccc2c1C(C)Oc1ccc2[nH]nc(-c3cnn(C)c3)c2c1 (stereo not shown) [Example 187, 6-(methyl-d3) - 5-(1-((3-(1-methyl-1H-pyrazol-4-yl)-1H-indazol-5-yl)oxy)ethyl)qu inoline] | 1 to 10 | B (B represents 20 ≤ multiple X<50) | A (A represents 1 ≤ multiple X<20) | B (B represents 20 ≤ multiple X<50) | 10 to 100 | 10 to 100 | 10 to 100 |  |  |  | 
6 | Cc1c[nH]c(-c2n[nH]c3ccc(C(=O)NCCN(C)C)cc23)n1 [Example 80, N-(2-(dimethylamino)ethyl)-3-(4-methyl-1H-imidazol-2-yl)-1H-indazole-5-carboxamide] | 10 to 100 | D (D represents 100 ≤ multiple X) | D (D represents 100 ≤ multiple X) | D (D represents 100 ≤ multiple X) | > 100 | > 100 | > 100 |  |  |  | 
7 | Cc1cc(O[C@H](C)c2c(Cl)cncc2Cl)cc2c(-c3cnn(CCN4CCOCC4)c3)n[nH]c12 [Example 27, (R)-4-(2-(4-(5-(1-(3,5-dichloropyridin-4-yl)ethoxy)-7-methyl-1H-indazol-3-yl)-1H-pyrazol-1-yl)ethyl)morpholine] | 1 to 10 | B (B represents 20 ≤ multiple X<50) | A (A represents 1 ≤ multiple X<20) | C (C represents 50 ≤ multiple X<100) | > 100 | 10 to 100 | > 100 |  |  |  | 
8 | C[C@@H](Oc1ccc2[nH]nc(-c3cnn(CCc4cccnc4)c3)c2n1)c1c(Cl)cncc1Cl [Example 61, (R)-5-(1-(3,5-dichloropyridin-4-yl)ethoxy)-3-(1-(2-(pyridin-3-yl)ethyl)-1H-pyrazol-4-yl)-1H-pyrazolo[4,3-b]pyridine] | 1 to 10 | A (A represents 1 ≤ multiple X<20) | A (A represents 1 ≤ multiple X<20) | B (B represents 20 ≤ multiple X<50) | 10 to 100 | 1 to 10 | 10 to 100 |  |  |  | 
9 | C[C@@H](Oc1ccc2[nH]nc(-c3cnn(C4CCN(C(=O)CO)C4)c3)c2n1)c1c(Cl)cncc1Cl (stereo partly drawn) [Example 59, 1-(3-(4-(5-((R)-1-(3,5-dichloropyridin-4-yl)ethoxy)-1H-pyrazolo[4,3-b]pyridin-3-yl)-1H-pyrazol-1-yl)pyrrolidin-1-yl)-2-hydroxyethan-1-one] | < 1 | A (A represents 1 ≤ multiple X<20) | A (A represents 1 ≤ multiple X<20) | B (B represents 20 ≤ multiple X<50) | 10 to 100 | < 1 | 1 to 10 |  |  |  | 

Second part, led by results:

Row | IC50 [1, 5] [nM] | Selectivity (X) FGFR1/FGFR3 [1] | Selectivity (X) FGFR2/FGFR3 [1] | Selectivity (X) FGFR4/FGFR3 [1] | IC50 [2, 6] [nM] | IC50 [3, 7] [nM] | IC50 [4, 8] [nM] | SMILES | IC50 [1] [nM] | IC50 [2] [nM] | IC50 [3] [nM] | IC50 [4] [nM]
10 | < 1 | B (B represents 20 ≤ multiple X<50) | A (A represents 1 ≤ multiple X<20) | B (B represents 20 ≤ multiple X<50) | 10 to 100 | 1 to 10 | 10 to 100 | Cc1cc(C(C)Oc2ccc3[nH]nc(-c4cnn(C)c4)c3c2)c2ccnn2c1 (stereo not shown) [Example 171, 3-(1-methyl-1H-pyrazol-4-yl)-5-(1-(6-methylpyrazolo [1,5-a]pyridin-4-yl)ethoxy)-1H-indazole] |  |  |  | 
11 | < 1 | B (B represents 20 ≤ multiple X<50) | A (A represents 1 ≤ multiple X<20) | D (D represents 100 ≤ multiple X) | > 100 | 1 to 10 | 10 to 100 | Cc1cc(C(C)Oc2ccc3[nH]nc(-c4cnn(C)c4)c3c2)c2cccnc2c1 (stereo not shown) [Example 133, 7-methyl-5-(1-((3-(1-methyl-1H-pyrazol-4-yl)-1H-indazol-5-yl)oxy)ethyl)qu inoline] |  |  |  | 
12 | < 1 | A (A represents 1 ≤ multiple X<20) | A (A represents 1 ≤ multiple X<20) | B (B represents 20 ≤ multiple X<50) | 10 to 100 | 1 to 10 | 1 to 10 | CC(Oc1ccc2[nH]nc(-c3cnn(CCCS(C)(=N)=O)c3)c2c1)c1cc(Cl)cc2nccnc12 (stereo not shown) [Example 173, (3-(4-(5-(1-(7-chloroquinoxalin-5-yl)ethoxy)-1H-indazol-3-yl)-1H-pyrazol-1-yl)propyl)(imino)(methyl)-sulfanone] |  |  |  | 
13 | < 1 | B (B represents 20 ≤ multiple X<50) | B (B represents 20 ≤ multiple X<50) | D (D represents 100 ≤ multiple X) | > 100 | 10 to 100 | 10 to 100 | COC1(C(=O)N2CC(n3cc(-c4n[nH]c5ccc(OC(C)c6cc(Cl)cc7nccnc67)cc45)cn3)C2)CC1 (stereo not shown) [Example 223, (3-(4-(5-(1-(7-chloroquinoxalin-5-yl)ethoxy)-1H-indazol-3-yl)-1H-pyrazol-1-yl)azetidin-1-yl)(1-methoxycyclopropyl)methanone] |  |  |  | 
